From patent US20190307740A1, “COMPOSITIONS AND METHODS FOR TREATMENT RELATED TO FALL AND FALL FREQUENCY IN NEURODEGENERATIVE DISEASES” (Neurocea, LLC, priority 2016, published 2019)
Where “and” joins values, the source holds several entries; their conditions need not be identical. Equal values may be shown once.

How the values were obtained:
[1] = system: subjects with idiopathic PD with LIDs
Description: (§1) At the time the study was performed (2009), there was no FDA accepted instrument for measuring treatment efficacy for LIDs. Therefore, several secondary objectives were utilized to assess efficacy including the Unified Dyskinesia Rating Scale (UDysRS).
(§2) Efficacy was measured with the Unified Dyskinesia Rating Scale (UDysRS), a semi-quantitative assessment, FDA-validated instrument to assess […] dyskinesia in PD. […] Dosing was begun at 1 mg every 6 hours to a final dose of 24 mg per day. Patients who tolerated a total daily dose of at least 16 mg per day continued in the study.
(§3) LIDs were assessed by the UDysRS, the main measure of LIDs (Table 12). […] The study was conducted in accordance with the Declaration of Helsinki and Good Clinical Practice Guidelines. All sites received approval from an institutional review board and written informed consent was obtained from each patient prior to participation.
(§4) The efficacy variables for LIDs were the mean change from baseline to week 10 in the UDysRS total score; UDysRS sub-scores (Table 12). An analysis of covariance (ANCOVA) combined features of regression and analysis of variance (ANOVA). In addition to the descriptive summary of each variable from baseline to endpoint, Least Square (LS) means standard errors and 95% Confidence intervals (CI) of each group, and the difference of LS means between the 2 treatment groups and its 95% CI are presented. A similar analysis was applied to comparisons between UPDRS Part II, UPDRS Part III.

[2] = system: subjects with idiopathic PD with LIDs; remark: listed apart in the source
Description: as §1

[3] = system: subjects with idiopathic PD with LIDs; remark: listed apart in the source
Description: The original UPDRS scale was used. […] In the UPDRS Part II, Question 13 is on Falling unrelated to Freezing. […] In Part II, Question 14 is on Freezing when Walking. This is a 5-point item and has two variables freezing and falls. […] Questions 13 and 14 were compared separately (Table 11).
as §4

[4] = system: subjects with idiopathic PD with LIDs; remark: listed apart in the source
Description: as §1
A total of 65 male and female subjects with idiopathic PD with LIDs were randomized in the study. The study consisted of 4 phases (FIG. 6A): screening phase (up to 3 weeks), double-blind treatment phase (10 weeks), taper phase (2 weeks), and follow-up phase (2 weeks). The approximate duration of the study for each subject was 17 weeks. […] During the double-blind treatment phase, dosing was begun at Visit 0 at 1 mg every 6 hours (total daily dose [TDD]=4 mg/day) and escalated upwards at 2-week intervals as follows: 2 mg every 6 hours (TDD=8 mg/day) at Visit 1 (Week 2); 4 mg every 6 hours (TDD=16 mg/day) at Visit 2 (Week 4); 6 mg every 6 hours (TDD=24 mg/day) at Visit 3 (Week 6). Subjects were maintained on 24 mg/day for 4 weeks. The subsequent taper phase (2 weeks total), beginning at Visit 4 (Week 10), consisted of 9 days of drug taper and 5 days off drug prior to Visit 5 (final safety visit). […] Ondansetron was provided by the sponsor and dispensed with each dose escalation step with instructions to use it for nausea and vomiting only during the first 4 days following dose initiation or escalation. […] No other dose down-titration was allowed.
as §2
Subjects were maintained on 24 mg/day for 4 weeks. The subsequent taper phase (2 weeks total), beginning at visit 4 (Week 10), consisted of 9 days of drug taper and 5 days off drug prior to Visit 5 (final safety visit). […] No other down-titration was allowed.
as §3

CN1CCCC1c1cccnc1.O=C(O)C(O)C(O)C(=O)O (stereo not shown) [NP002, Nicotine Bitartrate]
UDysRS Evaluation of Dyskinesias on Ambulation, Difference LS Means ([1]; NP002 vs placebo, p 0.011): −3.7 +/− 1.9 | UDysRS Evaluation of Dyskinesias on 7 Body Parts, Difference LS Means ([1]; NP002 vs placebo, p 0.062): −2.8 +/− 2.6 | Total Score UDysRS, Difference LS Means ([1]; NP002 vs placebo, p 0.092): −6.7 +/− 4.1 | UDysRS Evaluation of Dyskinesias on Dressing, Difference LS Means ([1]; NP002 vs placebo, p 0.139): −2.1 +/− 1.4 | UDysRS Evaluation of Dyskinesias on Drinking, Difference LS Means ([1]; NP002 vs placebo, p 0.171): −2.4 +/− 1.7 | UDysRS Evaluation of Dyskinesias on Communication, Difference LS Means ([1]; NP002 vs placebo, p 0.189): −1.9 +/− 1.4 | UDysRS total score (primary outcome of dyskinesia) vs placebo ([1]; Week 10): statistical trend towards improvement | reduction (improvement) in UDysRS ambulation subtest ([1]; baseline to week 10, p=0.011 vs placebo): 46% and 46.3% | reduction in LIDs on the Total UDysRS ([1]; baseline to week 10, p=0.09 vs placebo): 29% | Total Score UDysRS, Baseline ([1]; before treatment, n=35): 51.7 +/− 16.9 | UDysRS Evaluation of Dyskinesias on 7 Body Parts, Baseline ([1]; before treatment, n=35): 13.5 +/− 5.4 | UDysRS Evaluation of Dyskinesias on Ambulation, Baseline ([1]; before treatment, n=35): 9.5 +/− 6.0 | UDysRS Evaluation of Dyskinesias on Communication, Baseline ([1]; before treatment, n=35): 10.5 +/− 4.8 | UDysRS Evaluation of Dyskinesias on Dressing, Baseline ([1]; before treatment, n=35): 11.3 +/− 6.2 | UDysRS Evaluation of Dyskinesias on Drinking, Baseline ([1]; before treatment, n=35): 9.1 +/− 5.6 | physician reported outcomes per UDysRS Part III vs placebo ([1]; dyskinesia impact on ambulation, p=0.011): significant improvement | Total Score UDysRS, Week 10 ([1]; n=27): 36.4 +/− 16.1 | UDysRS Evaluation of Dyskinesias on Ambulation, Week 10 ([1]; n=27): 5.1 +/− 5.3 | UDysRS Evaluation of Dyskinesias on Communication, Week 10 ([1]; n=27): 7.0 +/− 5.0 | UDysRS Evaluation of Dyskinesias on Dressing, Week 10 ([1]; n=27): 6.9 +/−5.5 | UDysRS Evaluation of Dyskinesias on Drinking, Week 10 ([1]; n=27): 5.3 +/− 5.0 | PGI-C responders (score of 1, 2, or 3) ([2]; Visit 4 (Week 10), p=0.0048 vs placebo): 21 (77.8%) | LF-ADL responders (>25% reduction from baseline), vs placebo ([2]; Visit 4 (Week 10), p=0.0453): statistically significant difference between treatment groups | patient- and physician-rated assessments of efficacy vs placebo ([2]; in vivo): superior to placebo on ALL patient- and physician-rated assessments of efficacy | Difference in LS Means, UPDRS Part III ([3]; NP002 versus placebo, p 0.337): −18.3 ± 1.8 | Difference in LS Means, UPDRS Part II ([3]; NP002 versus placebo, p 0.631): 10.1 ± 0.96 | UPDRS II Change ([3]; baseline to 10 weeks): 2.8 ± 5.2 | UPDRS III Change ([3]; baseline to 10 weeks): 2.0 ± 7.5 | UPDRS II at Baseline ([3]; before treatment, n=35): 13.1 ± 6.0 | UPDRS III at Baseline ([3]; before treatment, n=35): 20.0 ± 8.8 | UPDRS II at 10 Weeks ([3]; n=30): 10.1 ± 5.3 | UPDRS III at 10 Weeks ([3]; n=30): 17.3 ± 10.6 | UPDRS Part II and Part III after treatment vs placebo ([3]; p>0.34): no significant differences | Study discontinuation, primary reason adverse event, n (%) ([4]; 35 randomized): 6 n (%) and 6 (17.1) n (%) | Constipation ([4]; N = 35): 5 (14.3) n (%) | Diarrhea ([4]; N = 35): 2 (5.7) n (%) | Dizziness ([4]; N = 35): 7 (20.0) n (%) | Fatigue ([4]; N = 35): 3 (8.6) n (%) | Headache ([4]; N = 35): 2 (5.7) n (%) | Insomnia ([4]; N = 35): 0 (0.0) n (%) | Nausea ([4]; N = 35): 13 (37.1) n (%) | Nightmare ([4]; N = 35): 2 (5.7) n (%) | Number (%) of subject with any AE ([4]; N = 35): 26 (74.3) n (%) | Pain ([4]; N = 35): 3 (8.6) n (%) | Pain in extremity ([4]; N = 35): 2 (5.7) n (%) | Tremor ([4]; N = 35): 2 (5.7) n (%) | Vomiting ([4]; N = 35): 4 (11.4) n (%) | Subjects who required dose reduction or discontinuation of study treatment, n (%) ([4]; because of adverse events, 35 randomized): 7 (20.0) n (%) | serum cotinine levels ([4]; compliance check): paralleled dosing of nicotine | most frequent adverse event ([4]; in vivo): nausea | number of adverse events reported ([4]; in vivo): 45 | overall safety and tolerability ([4]; oral 4 times/day up to 24 mg/day, 10 weeks): safe and well tolerated, other than nausea
